Like-named read-outs stand apart in the source and are kept apart here.
What was measured:
red blood cells [1] = settings: cited from earlier work
red blood cells [2] = settings: cited from earlier work; remark: listed apart in the source
[3] = system: FK-506 binding protein (FKBP); settings: cited from earlier work
[4] = system: peripheral blood mononuclear cells and erythrocytes; settings: cited from earlier work
T-lymphocytes = settings: cited from earlier work
[5] = system: transplanted tissue or organ; settings: parenteral administration to donor before transplant; cited from earlier work
[6] = Equilibrium of rapamycin between formed blood elements (FBE), whole blood and plasma in rat blood; format: in vitro ADME; settings: for Kp: formed blood elements, read-out: FBE to plasma ratio
Protocol: In human blood, erythrocytes comprise about 85 to 90 percent of the formed blood elements (microscopically visible). Human whole blood is comprised of about 46% formed blood elements and 54% plasma. Equilibrium of rapamycin between the rapamycin-loaded formed blood elements (FBE) and the plasma is quickly established and is seen to be species dependent. In rat blood containing rapamycin at a concentration of 38 ng/ml, the whole blood and FBE to plasma ratios were 1.3 and 1.7 respectively and at a concentration of 200 ng/ml the ratios were 0.8 and 0.5 respectively.

[7] = Equilibrium of rapamycin between formed blood elements (FBE), whole blood and plasma in human blood; format: in vitro ADME; settings: for Kp: formed blood elements, read-out: FBE to plasma ratio
Protocol: (§1) In human blood at rapamycin concentrations between 76 and 189 ng/ml, the whole blood and FBE to plasma ratios after 30 minutes incubation at 37° C. were 12±2 and 23.7±3.9 respectively. Similarly, at a concentration of 482 ng/ml, the ratios were 1.1 and 1.3 respectively. The ratios of whole blood to plasma concentrations in monkeys receiving rapamycin was 10±6 and in humans the ratio was 12±2, and indication that a species difference exists between primates and other mammals.

[8] = Whole blood to plasma concentration ratio in monkeys receiving rapamycin; format: in vivo; settings: monkey, read-out: ratio of whole blood to plasma concentrations
Protocol: as §1

[9] = Whole blood to plasma concentration ratio in humans receiving rapamycin; format: in vivo; settings: human, read-out: ratio of whole blood to plasma concentrations
Protocol: as §1

FKBP = assay: Binding of rapamycin to FKBP in formed blood elements (erythrocytes)
erythrocytes = assay: Hemolysis by rapamycin; format: cell-based
graft rejection = settings: donor pretreatment intravenously, rats; cited from earlier work
[10] = system: experimental allergic encephalomyolitis; settings: rats; cited from earlier work
adjuvant arthritis = settings: rats; cited from earlier work
[11] = system: humoral (IgE-like) antibodies; settings: rats, albumin allergic challenge; cited from earlier work
mouse T-cells = settings: combination with Cyclosporin A; ionomycin + PMA stimulation; cited from earlier work
[12] = system: restenosis (smooth muscle cell proliferation and internal thickening following vascular injury); settings: cited from earlier work
[13] = system: lymphatic leukemia, colon and mammary cancers, melanocarcinoma and ependymoblastoma; settings: cited from earlier work
transplant rejection = settings: cited from earlier work
[14] = rapamycin 76 to 189 ng/ml, 30 minutes incubation at 37° C.

Compound: C[C@@H]1[C@H](O)[C@@H](C)/C=C/C=C/C=C/C=C/C=C/C=C/C=C/[C@H](O[C@@H]2O[C@H](C)[C@@H](O)[C@H](N)[C@@H]2O)C[C@@H]2O[C@](O)(C[C@@H](O)C[C@@H](O)[C@H](O)CC[C@@H](O)C[C@@H](O)CC(=O)O[C@H]1C)C[C@H](O)[C@H]2C(=O)O [Amphotericin B]
- effect on sterols and cell membranes (red blood cells [1]): binds to sterols and perforates cell membranes

Compound: COc1cccc2c1C(=O)c1c(O)c3c(c(O)c1C2=O)C[C@@](O)(C(C)=O)C[C@@H]3O[C@H]1C[C@H](N)[C@H](O)[C@H](C)O1 [Daunomycin]
- binding to red blood cells (red blood cells [2]; red blood cells first treated with Amphotericin B): will bind daunomycin
- binding to red blood cells (red blood cells [2]; untreated red blood cells): will not bind to red blood cells

Compound: C=CC[C@@H]1/C=C(\C)C[C@H](C)C[C@H](OC)[C@H]2O[C@@](O)(C(=O)C(=O)N3CCCC[C@H]3C(=O)O[C@H](/C(C)=C/[C@@H]3CC[C@@H](O)[C@H](OC)C3)[C@H](C)[C@@H](O)CC1=O)[C@H](C)C[C@@H]2OC [FK-506]
- binding with FKBP in the erythrocytes [3]: bind reversibly
- absorption and retention by peripheral blood mononuclear cells and erythrocytes [4]: absorbed and retained
- activation of T-lymphocytes (T-lymphocytes): inhibits the activation of T-lymphocytes
- rejection of the transplanted tissue or organ [5]: reduce rejection of the transplanted tissue or organ

Compound: O=P1(N(CCCl)CCCl)NCCCO1 (centres unmarked) [cyclophosphamide]
- rejection of the transplanted tissue or organ [5]: reduce rejection of the transplanted tissue or organ

Compound: CO[C@H]1C[C@@H]2CC[C@@H](C)[C@@](O)(O2)C(=O)C(=O)N2CCCC[C@H]2C(=O)O[C@H]([C@H](C)C[C@@H]2CC[C@@H](O)[C@H](OC)C2)CC(=O)[C@H](C)/C=C(\C)[C@@H](O)[C@@H](OC)C(=O)[C@H](C)C[C@H](C)/C=C/C=C/C=C/1C [rapamycin]
- blood plasma ratio ([6]; rapamycin 38 ng/ml): 1.3
- blood plasma ratio ([6]; rapamycin 200 ng/ml): 0.8
- Kp ([6]; rapamycin 38 ng/ml): 1.7
- Kp ([6]; rapamycin 200 ng/ml): 0.5
- blood plasma ratio ([7]; rapamycin 482 ng/ml): 1.1
- blood plasma ratio [7, 14]: 12 ± 2
- Kp ([7]; rapamycin 482 ng/ml): 1.3
- Kp [7, 14]: 23.7 ± 3.9
- blood plasma ratio [8]: 10 ± 6
- blood plasma ratio [9]: 12 ± 2
- binding with FKBP in formed blood elements (erythrocytes) (FKBP): bind reversibly with the binding protein FKBP
- hemolysis (erythrocytes): does not cause hemolysis
- rejection of the transplanted tissue or organ [5]: reduce rejection of the transplanted tissue or organ
- graft rejection (graft rejection): reduce graft rejection
- immune response in experimental allergic encephalomyolitis [10]: inhibits the immune response
- immune response in adjuvant arthritis (adjuvant arthritis): inhibits the immune response
- humoral (IgE-like) antibodies [11]: prevents humoral (IgE-like) antibodies
- suppressive activity of Cyclosporin A in T-cell proliferation, IL-2 production and IL-2R expression (mouse T-cells): potentiates the suppressive activity of Cyclosporin A
- restenosis [12]: inhibits restenosis
- antitumor activity [13]: antitumor activity
- transplant rejection (transplant rejection): inhibition of transplant rejection

Compound: CC1\C=C/C=C\C=C\C=C\C=C\C=C\C=C\C(OC2OC(C)C(O)C(N)C2O)CC2OC(O)(CC(O)CC(O)CC(O)CC(O)CC(=O)CC(O)CC(=O)OC1C(C)CCC(O)CC(=O)c1ccc(N)cc1)CC(O)C2C(=O)O (centres unmarked) [vacidin A]
- binding with red blood cells and hemolysis (red blood cells [1]): bind with red blood cells and cause hemolysis to occur

Compound: cyclosporin A
- rejection of the transplanted tissue or organ [5]: reduce rejection of the transplanted tissue or organ

Compound: methylprednisone
- rejection of the transplanted tissue or organ [5]: reduce rejection of the transplanted tissue or organ

— US5482945A, “Innovative technique for immunosuppression involving administration of rapamycin loaded formed blood elements” (American Home Products Corporation, priority 1992, dated 1996)
